Laboratory results taken from the NIST ThermoML archive (doi:10.1021/je700152c).
Numbers after ± are expanded uncertainties.

Experiment: molar heat capacity at saturation pressure; xn = mol fraction of the nth substance listed

CCCCn1cc[n+](C)c1.Cc1ccc(S(=O)(=O)[O-])cc1 [1-butyl-3-methylimidazolium tosylate] + O
molar heat capacity (78.15 K, Crystal, x1 = 0.83): 130.09 ± 1.6 J/K/mol
molar heat capacity (78.19 K, Metastable crystal, x1 = 0.83): 130.61 ± 1.6 J/K/mol
molar heat capacity (80.13 K, Crystal, x1 = 0.83): 132.44 ± 1.6 J/K/mol
molar heat capacity (80.17 K, Metastable crystal, x1 = 0.83): 132.96 ± 1.6 J/K/mol
molar heat capacity (81.97 K, Crystal, x1 = 0.83): 134.26 ± 1.6 J/K/mol
molar heat capacity (82.01 K, Metastable crystal, x1 = 0.83): 135.05 ± 1.6 J/K/mol
molar heat capacity (83.83 K, Crystal, x1 = 0.83): 136.35 ± 1.6 J/K/mol
molar heat capacity (83.86 K, Metastable crystal, x1 = 0.83): 137.39 ± 1.6 J/K/mol
molar heat capacity (85.69 K, Crystal, x1 = 0.83): 138.43 ± 1.6 J/K/mol
molar heat capacity (85.72 K, Metastable crystal, x1 = 0.83): 139.48 ± 1.6 J/K/mol
molar heat capacity (87.56 K, Crystal, x1 = 0.83): 140.78 ± 1.6 J/K/mol
molar heat capacity (87.59 K, Metastable crystal, x1 = 0.83): 141.82 ± 1.6 J/K/mol
molar heat capacity (89.44 K, Crystal, x1 = 0.83): 142.87 ± 1.6 J/K/mol
molar heat capacity (89.46 K, Metastable crystal, x1 = 0.83): 144.17 ± 1.6 J/K/mol
molar heat capacity (91.33 K, Crystal, x1 = 0.83): 144.95 ± 1.6 J/K/mol
molar heat capacity (91.34 K, Metastable crystal, x1 = 0.83): 146.26 ± 1.6 J/K/mol
molar heat capacity (93.22 K, Crystal, x1 = 0.83): 147.04 ± 1.6 J/K/mol
molar heat capacity (93.23 K, Metastable crystal, x1 = 0.83): 148.6 ± 1.6 J/K/mol
molar heat capacity (95.13 K, Crystal, x1 = 0.83): 149.12 ± 1.6 J/K/mol
molar heat capacity (95.13 K, Metastable crystal, x1 = 0.83): 150.69 ± 1.6 J/K/mol
molar heat capacity (97.03 K, Metastable crystal, x1 = 0.83): 153.03 ± 1.6 J/K/mol
molar heat capacity (97.04 K, Crystal, x1 = 0.83): 150.95 ± 1.6 J/K/mol
molar heat capacity (98.94 K, Metastable crystal, x1 = 0.83): 155.38 ± 1.8 J/K/mol
molar heat capacity (98.95 K, Crystal, x1 = 0.83): 153.03 ± 1.6 J/K/mol
molar heat capacity (100.85 K, Metastable crystal, x1 = 0.83): 157.47 ± 1.8 J/K/mol
molar heat capacity (100.88 K, Crystal, x1 = 0.83): 155.12 ± 1.8 J/K/mol
molar heat capacity (102.77 K, Metastable crystal, x1 = 0.83): 159.81 ± 1.8 J/K/mol
molar heat capacity (102.8 K, Crystal, x1 = 0.83): 156.94 ± 1.8 J/K/mol
molar heat capacity (104.69 K, Metastable crystal, x1 = 0.83): 161.9 ± 1.8 J/K/mol
molar heat capacity (104.74 K, Crystal, x1 = 0.83): 159.03 ± 1.8 J/K/mol
molar heat capacity (106.61 K, Metastable crystal, x1 = 0.83): 164.24 ± 1.8 J/K/mol
molar heat capacity (106.68 K, Crystal, x1 = 0.83): 161.12 ± 1.8 J/K/mol
molar heat capacity (108.55 K, Metastable crystal, x1 = 0.83): 166.33 ± 1.8 J/K/mol
molar heat capacity (108.63 K, Crystal, x1 = 0.83): 163.2 ± 1.8 J/K/mol
molar heat capacity (110.48 K, Metastable crystal, x1 = 0.83): 168.68 ± 1.8 J/K/mol
molar heat capacity (110.57 K, Crystal, x1 = 0.83): 165.03 ± 1.8 J/K/mol
molar heat capacity (112.41 K, Metastable crystal, x1 = 0.83): 170.76 ± 1.8 J/K/mol
molar heat capacity (112.53 K, Crystal, x1 = 0.83): 167.11 ± 1.8 J/K/mol
molar heat capacity (114.35 K, Metastable crystal, x1 = 0.83): 173.11 ± 1.8 J/K/mol
molar heat capacity (114.48 K, Crystal, x1 = 0.83): 169.2 ± 1.8 J/K/mol
molar heat capacity (116.29 K, Metastable crystal, x1 = 0.83): 175.19 ± 1.8 J/K/mol
molar heat capacity (116.44 K, Crystal, x1 = 0.83): 171.02 ± 1.8 J/K/mol
molar heat capacity (118.23 K, Metastable crystal, x1 = 0.83): 177.54 ± 1.8 J/K/mol
molar heat capacity (118.4 K, Crystal, x1 = 0.83): 173.11 ± 1.8 J/K/mol
molar heat capacity (120.18 K, Metastable crystal, x1 = 0.83): 179.89 ± 1.8 J/K/mol
molar heat capacity (120.37 K, Crystal, x1 = 0.83): 175.19 ± 1.8 J/K/mol
molar heat capacity (122.12 K, Metastable crystal, x1 = 0.83): 182.23 ± 1.8 J/K/mol
molar heat capacity (122.34 K, Crystal, x1 = 0.83): 177.02 ± 1.8 J/K/mol
molar heat capacity (124.07 K, Metastable crystal, x1 = 0.83): 184.32 ± 1.8 J/K/mol
molar heat capacity (124.3 K, Crystal, x1 = 0.83): 179.1 ± 1.8 J/K/mol
molar heat capacity (126.01 K, Metastable crystal, x1 = 0.83): 186.66 ± 1.8 J/K/mol
molar heat capacity (126.27 K, Crystal, x1 = 0.83): 181.19 ± 1.8 J/K/mol
molar heat capacity (127.96 K, Metastable crystal, x1 = 0.83): 189.01 ± 2.1 J/K/mol
molar heat capacity (128.25 K, Crystal, x1 = 0.83): 183.28 ± 1.8 J/K/mol
molar heat capacity (129.91 K, Metastable crystal, x1 = 0.83): 191.36 ± 2.1 J/K/mol
molar heat capacity (130.22 K, Crystal, x1 = 0.83): 185.36 ± 1.8 J/K/mol
molar heat capacity (131.86 K, Metastable crystal, x1 = 0.83): 193.7 ± 2.1 J/K/mol
molar heat capacity (132.19 K, Crystal, x1 = 0.83): 187.45 ± 2.1 J/K/mol
molar heat capacity (133.81 K, Metastable crystal, x1 = 0.83): 196.05 ± 2.1 J/K/mol
molar heat capacity (134.16 K, Crystal, x1 = 0.83): 189.79 ± 2.1 J/K/mol
molar heat capacity (134.57 K, Crystal, x1 = 0.3): 80.15 ± 1.1 J/K/mol
molar heat capacity (135.75 K, Metastable crystal, x1 = 0.83): 198.4 ± 2.1 J/K/mol
molar heat capacity (136.14 K, Crystal, x1 = 0.83): 192.14 ± 2.1 J/K/mol
molar heat capacity (137.46 K, Crystal, x1 = 0.3): 81.31 ± 1.1 J/K/mol
molar heat capacity (137.7 K, Metastable crystal, x1 = 0.83): 201 ± 2.1 J/K/mol
molar heat capacity (138.11 K, Crystal, x1 = 0.83): 194.75 ± 2.1 J/K/mol
molar heat capacity (139.65 K, Metastable crystal, x1 = 0.83): 203.09 ± 2.1 J/K/mol
molar heat capacity (140.08 K, Crystal, x1 = 0.83): 197.88 ± 2.1 J/K/mol
molar heat capacity (140.19 K, Crystal, x1 = 0.3): 82.47 ± 1.1 J/K/mol
molar heat capacity (141.59 K, Metastable crystal, x1 = 0.83): 205.7 ± 2.1 J/K/mol
molar heat capacity (142.04 K, Crystal, x1 = 0.83): 201.53 ± 2.1 J/K/mol
